Data published in patent US20240116946A1 (Gilead Sciences, Inc., priority 2022, published 2024).
Like-named read-outs stand apart in the source and are kept apart here.

What was measured:
[1] = system: SARS-CoV-2-NLuc; experiment: microbe, parasite or virus in culture; assay type: cell-based, SARS Coronavirus 2
[2] = biological target: recombinant SARS-CoV-2 Main protease (Mpro) (Severe acute respiratory syndrome coronavirus 2 (2019-nCoV) (SARS-CoV-2), UniProt P0DTD1); experiment: Cov Mpro Biochemical IC50 Assay
[3] = Severe acute respiratory syndrome coronavirus, 48 h, read-out: MPro EC50
[4] = recombinant SARS-CoV-2 Mpro, fluorogenic peptide substrate, read-out: MPro IC50
[5] = recombinant SARS-CoV-2 Mpro 7.5 nM, fluorogenic peptide substrate 40 μM, read-out: MPro IC50
[6] = Severe acute respiratory syndrome coronavirus, 48 h; read-out: MPro EC50

O=c1[nH]c2cc(-c3ccccc3Cl)sc2c(=O)n1-c1cncc2ccc(N3CCOCC3)cc12 [Example 385, 6-(2-chlorophenyl)-3-(6-morpholinoisoquinolin-4-yl)thieno[3,2-d]pyrimidine-2,4(1H,3H)-dione]
EC50 [1, 3]: 14 nM
IC50 [2, 4]: 5.51 nM

COc1ccc(Cl)c(-c2cc3[nH]c(=O)n(-c4cncc5ccc(N6CCn7c(nnc7C(F)(F)F)C6)cc45)c(=O)c3s2)c1 [Example 603]
EC50 [1, 3]: 14.6 nM
IC50 [2, 5]: 2.75 nM

CS(=O)(=O)N1CC2(CN(c3ccc4cncc(-n5c(=O)[nH]c6cc(-c7ccccc7Cl)sc6c5=O)c4c3)C2)C1 [Example 424]
EC50 [1, 3]: 55.8 nM
IC50 [2, 5]: 11.3 nM

COc1cc(-c2cc3[nH]c(=O)n(-c4cncc5cnn(C)c45)c(=O)c3cc2OC)c(C#N)cc1F [Example 765]
EC50 [1, 3]: 94.2 nM
IC50 [2, 5]: 13.9 nM

COc1cc(-c2cc3c(s2)c(=O)n(-c2cncc4cccc(F)c24)c(=O)n3CC#N)c(Cl)cc1F [Example 703]
EC50 [1, 3]: 3.74 nM
IC50 [2, 5]: 3.58 nM

COc1ccc(C#N)c(-c2cc3[nH]c(=O)n(-c4cncc5ccc(N6CC(F)(F)OC(F)(F)C6)cc45)c(=O)c3s2)c1 [Example 230]
EC50 [1, 3]: 128 nM
IC50 [2, 4]: 23.8 nM

Cn1ncc2cncc(-n3c(=O)c4sc(-c5cc(F)c(F)cc5Cl)cc4n(CCC#N)c3=O)c21 [Example 790, 3-[6-(2-chloro-4,5-difluoro-phenyl)-3-(1-methylpyrazolo[4,3-c]pyridin-7-yl)-2,4-dioxo-thieno[3,2-d]pyrimidin-1-yl]propanenitrile]
EC50 [1, 3]: 14.3 nM
IC50 [2, 5]: 12.6 nM

COc1cc(-c2cc3[nH]c(=O)n(-c4cncc5nnn(C)c45)c(=O)c3s2)c(Cl)cc1F [Example 749]
EC50 [1, 3]: 32.6 nM
IC50 [2, 5]: 7.35 nM

COc1ccc(C#N)c(-c2cc3[nH]c(=O)n(-c4cncc5ccccc45)c(=O)c3cc2OC)c1 [Example 312]
EC50 [1, 3]: 20.4 nM
IC50 [2, 4]: 14.3 nM

COc1cc(-c2cc3c(s2)c(=O)n(-c2cncc4nnn(C(C)C)c24)c(=O)n3CCC#N)c(Cl)cc1F [Example 991]
EC50 [1, 3]: 49.8 nM
IC50 [2, 5]: 16 nM

COc1cncc(-n2c(=O)c3sc(-c4ccccc4Cl)cc3n(CCC#N)c2=O)c1 [Example 836]
EC50 [1, 6]: 40.5 nM
IC50 [2, 5]: 21.7 nM

COc1cc(-c2cc3c(s2)c(=O)n(-c2cncc4cnn(C)c24)c(=O)n3CC(F)(F)F)c(Cl)cc1F [Example 1066]
EC50 [1, 3]: 19.9 nM
IC50 [2, 5]: 15.3 nM

COc1ccc(Cl)c(-c2ccc3c(=O)n(-c4cncc5ccc(N6CC7(COCCO7)C6)cc45)c(=O)[nH]c3c2)c1 [Example 412]
EC50 [1, 6]: 38.3 nM
IC50 [2, 5]: 10.8 nM

O=c1[nH]c2cc(-c3cccc4cccnc34)ccc2c(=O)n1-c1cncc2ccccc12 [Example 40]
EC50 [1, 6]: 4910 nM
IC50 [2, 4]: 1310 nM

Cn1ncc2cncc(-n3c(=O)c4sc(C5C(Cl)=CC(Cl)=C6OCCC65)cc4n(CCC#N)c3=O)c21 (centres unmarked) [Example 1021]
EC50 [1, 3]: 37.2 nM
IC50 [2, 5]: 15.5 nM

O=c1[nH]c2c(Cl)c(-c3ccccc3Cl)ccc2c(=O)n1-c1cncc2ccccc12 [Example 79]
EC50 [1, 3]: 12100 nM
IC50 [2, 4]: 14000 nM

COc1cc(-c2cc3c(s2)c(=O)n(-c2cncc(C)c2)c(=O)n3CCC#N)c(C#N)cc1F [Example 876]
EC50 [1, 3]: 6.25 nM
IC50 [2, 5]: 2.76 nM

CS(=O)(=O)c1cccc(-c2cccc(Cl)c2-c2ccc3c(=O)n(-c4cncc5ccccc45)c(=O)[nH]c3c2)c1 [Example 269]
EC50 [1, 3]: < 5.29 nM
IC50 [2, 4]: 10.7 nM

Cc1c(-c2cccc(Cl)c2-c2ccc3c(=O)n(-c4cncc5ccccc45)c(=O)[nH]c3c2)cnn1C1CCN(C(=O)OC(C)(C)C)CC1 [Example 268]
EC50 [1, 3]: 43.1 nM
IC50 [2, 4]: 131 nM

COc1ccc(Cl)c(-c2cc3[nH]c(=O)n(-c4cncc(C5CC5)c4)c(=O)c3s2)c1 [Example 367]
EC50 [1, 6]: 21.1 nM
IC50 [2, 4]: 8.9 nM

O=c1[nH]c2cc(-c3c(Cl)cc(Cl)c4c3CCO4)sc2c(=O)n1-c1cncc2ccccc12 [Example 647]
EC50 [1, 3]: 25.9 nM
IC50 [2, 5]: 10.9 nM

CC(C)(C)OC(=O)N1CCn2ncc(-c3cccc(Cl)c3-c3ccc4c(=O)n(-c5cncc6ccccc56)c(=O)[nH]c4c3)c2C1 [Example 271]
EC50 [1, 3]: 208 nM
IC50 [2, 4]: 155 nM

O=c1[nH]c2cc(-c3c(Cl)cccc3OCc3cscn3)ccc2c(=O)n1-c1cncc2ccccc12 [Example 471, 7-[2-chloro-6-(thiazol-4-ylmethoxy)phenyl]-3-(4-isoquinolyl)-1H-quinazoline-2,4-dione]
EC50 ([1]; read-out: MPro EC50): 478 nM
IC50 [2, 5]: 97.2 nM

O=c1[nH]c2cc(-c3c(Cl)cccc3-c3ccc4ncnn4c3)ccc2c(=O)n1-c1cncc2ccccc12 [Example 241]
EC50 [1, 3]: 54 nM
IC50 [2, 4]: 35 nM

COc1cc(-c2cc3[nH]c(=O)n(-c4cncc5ccc(F)cc45)c(=O)c3s2)c(Cl)cc1F [Example 763]
EC50 [1, 3]: 13.4 nM
IC50 [2, 5]: 10.2 nM

O=C1NCc2c1cccc2-c1cccc(Cl)c1-c1ccc2c(=O)n(-c3cncc4ccccc34)c(=O)[nH]c2c1 [Example 193]
EC50 [1, 3]: 65.6 nM
IC50 [2, 4]: 7.69 nM

Cc1ccccc1-c1cnc2c(=O)n(-c3cncc4ccccc34)c(=O)[nH]c2c1 [Example 46]
EC50 [1, 6]: 989 nM
IC50 [2, 4]: 216 nM

CN1C(=O)COc2cc(-c3cccc(Cl)c3-c3ccc4c(=O)n(-c5cncc6ccccc56)c(=O)[nH]c4c3)ccc21 [Example 197]
EC50 [1, 3]: 8.58 nM
IC50 [2, 4]: 13.9 nM

COc1ccc(Cl)c(-c2ccc3c(=O)n(-c4cncc5ccccc45)c(=S)[nH]c3c2)c1 [Example 240]
EC50 [1, 6]: 520 nM
IC50 ([2]; MPro IC50, recombinant SARS-CoV-2 Mpro, fluorogenic peptide substrate): 1660 nM

COc1cc(-c2cccc(Cl)c2-c2ccc3c(=O)n(-c4cncc5ccccc45)c(=O)[nH]c3c2)cn2ncnc12 [Example 143]
EC50 [1, 6]: 79.2 nM
IC50 [2, 4]: 10.8 nM

O=c1[nH]c2cc(-c3ccccc3Cl)c(F)cc2c(=O)n1-c1cncc2ccccc12 [Example 37]
EC50 [1, 3]: 170 nM
IC50 [2, 4]: 248 nM

Cn1cc(-c2cccc(Cl)c2-c2cc3[nH]c(=O)n(-c4cncc5ccccc45)c(=O)c3s2)c(C(F)(F)F)n1 [Example 280, 6-(2-chloro-6-(1-methyl-3-(trifluoromethyl)-1H-pyrazol-4-yl)phenyl)-3-(isoquinolin-4-yl)thieno[3,2-d]pyrimidine-2,4(1H,3H)-dione]
EC50 [1, 3]: 15.9 nM
IC50 [2, 4]: 5.97 nM

COc1cc(Cl)c(-c2cc3[nH]c(=O)n(-c4cncc5ccccc45)c(=O)c3s2)cc1Cl [Example 724]
EC50 [1, 3]: 17.1 nM
IC50 [2, 5]: 9.42 nM

N#CCCn1c(=O)n(-c2cncc(C(F)F)c2)c(=O)c2sc(-c3ccccc3C#N)cc21 [Example 888]
EC50 [1, 6]: 91.5 nM
IC50 [2, 5]: 25.8 nM

COCCn1cc2cncc(-n3c(=O)c4sc(-c5cc(OC)c(F)cc5Cl)cc4n(CCC#N)c3=O)c2n1 [Example 914]
EC50 [1, 3]: 10.9 nM
IC50 [2, 5]: 4.76 nM

COc1ccc2cncc(-n3c(=O)[nH]c4cc(-c5c(Cl)cccc5C5=CCOCC5)sc4c3=O)c2c1 [Example 563]
EC50 [1, 3]: 10 nM
IC50 [2, 5]: 6.96 nM

Cn1ncc2cncc(-n3c(=O)c4sc(-c5cc(F)ccc5C#N)cc4n(CCC#N)c3=O)c21 [Example 778]
EC50 [1, 3]: 179 nM
IC50 [2, 5]: 19 nM

COc1cccc(Cl)c1-c1cnc2c(=O)n(-c3cncc4ccccc34)c(=O)[nH]c2c1 [Example 48]
EC50 [1, 6]: 277 nM
IC50 [2, 4]: 95.7 nM

COc1cc(C#N)c(-c2cc3c(s2)c(=O)n(-c2cncc4cnn(C)c24)c(=O)n3CCC#N)cc1F [Example 795]
EC50 [1, 3]: 86.7 nM
IC50 [2, 5]: 20 nM

COc1ccc(Cl)c(-c2cc3[nH]c(=O)n(-c4cncc5ccc(N6C(=O)COC[C@@H]6C)cc45)c(=O)c3s2)c1 [Example 574]
EC50 ([1]; read-out: MPro EC50): 18.5 nM
IC50 [2, 5]: 6.37 nM

COc1cc(-c2ccc3c(=O)n(-c4cncc5ccccc45)c(=O)n(CCC#N)c3c2)c(Cl)cc1F [Example 949]
EC50 [1, 3]: 757 nM
IC50 [2, 5]: 147 nM

Cn1ncc2cncc(-n3c(=O)c4sc(-c5cc(F)c(F)cc5Cl)cc4n(CCC#N)c3=O)c21 (single isomer, unassigned) [Example 1077, 3-[6-(2-chloro-4,5-difluoro-phenyl)-3-(1-methylpyrazolo[4,3-c]pyridin-7-yl)-2,4-dioxo-thieno[3,2-d]pyrimidin-1-yl]propanenitrile]
EC50 ([1]; read-out: MPro EC50): > 1000 nM
IC50 [2, 5]: 485 nM

COc1cc(-c2cc3[nH]c(=O)n(-c4cc(C)cnn4)c(=O)c3s2)c(Cl)cc1F [Example 746]
EC50 [1, 3]: 54.3 nM
IC50 [2, 5]: 4.17 nM

COc1cc(-c2cc3c(s2)c(=O)n(-c2cncc(OC(F)F)c2)c(=O)n3CCC#N)c(Cl)cc1F [Example 872]
EC50 [1, 3]: 37.3 nM
IC50 [2, 5]: 8.39 nM

COc1cc(-c2cc3c(s2)c(=O)n(-c2cncc4c2c(C)nn4C)c(=O)n3CCC#N)c(Cl)cc1F [Example 925, 3-(6-(2-chloro-4-fluoro-5-methoxyphenyl)-3-(1,3-dimethyl-1H-pyrazolo[3,4-c]pyridin-4-yl)-2,4-dioxo-3,4-dihydrothieno[3,2-d]pyrimidin-1(2H)-yl)propanenitrile]
EC50 [1, 3]: 6.55 nM
IC50 [2, 5]: 6.13 nM

COc1cc(-c2cc3[nH]c(=O)n(-c4cncc5cccc(F)c45)c(=O)c3s2)c(Cl)cc1F (single isomer, unassigned) [Example 899, 6-(2-chloro-4-fluoro-5-methoxyphenyl)-3-(5-fluoroisoquinolin-4-yl)thieno[3,2-d]pyrimidine-2,4(1H,3H)-dione]
EC50 ([1]; read-out: MPro EC50): 3.13 nM
IC50 [2, 5]: 4.03 nM

Cc1ccccc1-c1ccc2c(=O)n(-c3cncc4ccccc34)c(=O)[nH]c2c1 [Example 36]
EC50 [1, 3]: 619 nM
IC50 [2, 4]: 388 nM

Cn1cc2ccc(-n3c(=O)n(-c4cncc5ccccc45)c(=O)c4sc(-c5ccccc5Cl)cc43)cc2n1 [Example 152, 6-(2-chlorophenyl)-3-(isoquinolin-4-yl)-1-(2-methyl-2H-indazol-6-yl)thieno[3,2-d]pyrimidine-2,4(1H,3H)-dione]
EC50 [1, 3]: 149 nM
IC50 [2, 4]: 85.8 nM

COc1cc(-c2cc3c(s2)c(=O)n(-c2cccnc2)c(=O)n3CCC#N)c(Cl)cc1F [Example 982]
EC50 [1, 3]: 7.89 nM
IC50 [2, 5]: 4.12 nM
